From patent publication US20070088023A1, “Method of administration for 5-(2-chlorophenyl)-1,2-dihydro-7-fluoro-8-methoxy-3-methyl-oyrazolo[1,4]benzodiazepine” (priority 2005, published 2007) come the findings set out here.

Where two headings read alike, the source gives them in different places.

The nature of the series: pre-clinical good laboratory practices toxicology, maximum tolerated dose. Set-up: species or system rats. The conditions noted are these: rat, in vivo. The method, then:
The starting dose is based on pre-clinical good laboratory practices toxicological results, according to the accepted standards. […] Thus, the maximum tolerated dose equivalent for this trial will be 1/10th of the HED or 1.8 rounded down to 1.5 mg/m^2/day with dose escalation in 1.5 mg/m^2 increments to 30 mg/m^2 or until dose limiting toxicity(s)(DLT) occur.

Take `COc1cc2c(cc1F)C(c1ccccc1Cl)=Nc1c(n[nH]c1C)N2` [compound of Formula I, 5-(2-chlorophenyl)-1,2-dihydro-7-fluoro-8-methoxy-3-methyl-pyrazolo[3,4-b][1,4]benzodiazepine]: the MTD by setting is: (rat MTD 3 mg/kg/day times 6, read-out: HED (human equivalent dose) of the rat maximum tolerated dose) 18 mg/kg/day; (rats, pre-clinical GLP toxicology, read-out: maximum tolerated dose in rats) 3 mg/kg/day.
